Consider 3 compounds from ChEMBL document CHEMBL3585344, “Thiazole-based aminopyrimidines and N-phenylpyrazolines as potent antimicrobial agents: synthesis and biological evaluation” (2014).

Molecules are shown by their SMILES. In brackets after ≈: the same amount, converted by molar mass.

Test [1] relates to Staphylococcus aureus. The test can be described thus: Antibacterial activity against Staphylococcus aureus ATCC 6538 after 24 hrs by microdilution method. Format: functional. Particulars: ATCC 6538, 24 h. On the technique in general: Dilution methods test growth across graded concentrations, often in twofold steps.
The test system of test [2] is Bacillus cereus. The test can be described thus: Antibacterial activity against Bacillus cereus clinical isolate after 24 hrs by microdilution method. It is filed as functional.
Test [3] has as its system Micrococcus flavus. Put plainly: Antibacterial activity against Micrococcus flavus ATCC 10240 after 24 hrs by microdilution method. Particulars: ATCC 10240, 24 h. It is filed as functional.
Test [4] deals with Listeria monocytogenes. Put plainly: Antibacterial activity against Listeria monocytogenes NCTC 7973 after 24 hrs by microdilution method. Format: functional. Particulars: NCTC 7973, 24 h.
Test [5] has as its system Staphylococcus aureus. Put plainly: Bactericidal activity against Staphylococcus aureus ATCC 6538 after 72 hrs by microdilution method. It is filed as functional.
For test [6], the system named is Bacillus cereus. The test can be described thus: Bactericidal activity against Bacillus cereus clinical isolate after 72 hrs by microdilution method. Format: functional.
Test [7] deals with Micrococcus flavus. Put plainly: Bactericidal activity against Micrococcus flavus ATCC 10240 after 72 hrs by microdilution method. It is filed as functional.
Test [8] concerns Listeria monocytogenes. The test can be described thus: Bactericidal activity against Listeria monocytogenes NCTC 7973 after 72 hrs by microdilution method. Format: functional.
Test [9] has as its system Pseudomonas aeruginosa. The test can be described thus: Antibacterial activity against Pseudomonas aeruginosa ATCC 27853 after 24 hrs by microdilution method. Format: functional. The following applies: ATCC 27853, 24 h.
Test [10] relates to Salmonella typhimurium. The test can be described thus: Antibacterial activity against Salmonella typhimurium ATCC 13311 after 24 hrs by microdilution method. It is filed as functional, Salmonella enterica subsp. enterica serovar Typhimurium. The following applies: Salmonella enterica, ATCC 13311, 24 h.
In test [11] the test system is Escherichia coli. Put plainly: Antibacterial activity against Escherichia coli ATCC 35210 after 24 hrs by microdilution method. Format: functional. Particulars: ATCC 35210, 24 h.
Test [12] has as its system Enterococcus faecalis. The test can be described thus: Antibacterial activity against Enterococcus faecalis ATCC 7080 isolated from human after 24 hrs by microdilution method. Particulars: ATCC 7080, 24 h. Format: functional.
Test [13] relates to Enterobacter cloacae. The test can be described thus: Antibacterial activity against Enterobacter cloacae ATCC 35030 isolated from human after 24 hrs by microdilution method. Format: functional. The following applies: ATCC 35030, 24 h.
Test [14] relates to Pseudomonas aeruginosa. The test can be described thus: Bactericidal activity against Pseudomonas aeruginosa ATCC 27853 after 72 hrs by microdilution method. It is filed as functional.
Test [15] has as its system Salmonella typhimurium. The test can be described thus: Bactericidal activity against Salmonella typhimurium ATCC 13311 after 72 hrs by microdilution method. It is filed as functional, Salmonella enterica subsp. enterica serovar Typhimurium.
The subject of test [16] is Escherichia coli. Put plainly: Bactericidal activity against Escherichia coli ATCC 35210 after 72 hrs by microdilution method. Format: functional.
Test [17] has as its system Enterococcus faecalis. Put plainly: Bactericidal activity against Enterococcus faecalis ATCC 7080 isolated from human after 72 hrs by microdilution method. It is filed as functional.
The test system of test [18] is Enterobacter cloacae. The test can be described thus: Bactericidal activity against Enterobacter cloacae ATCC 35030 isolated from human after 72 hrs by microdilution method. It is filed as functional.
Test [19] relates to Aspergillus ochraceus. Put plainly: Antifungal activity against Aspergillus ochraceus ATCC 12066 after 72 hrs by microdilution method. Format: functional. Particulars: ATCC 12066, 72 h.
Test [20] deals with Aspergillus flavus. Put plainly: Antifungal activity against Aspergillus flavus ATCC 9643 after 72 hrs by microdilution method. Format: functional. The following applies: ATCC 9643, 72 h.
For test [21], the system named is Aspergillus niger. The test can be described thus: Antifungal activity against Aspergillus niger ATCC 6275 after 72 hrs by microdilution method. Format: functional. The following applies: ATCC 6275, 72 h.
Test [22] has as its system Aspergillus fumigatus. The test can be described thus: Antifungal activity against Aspergillus fumigatus isolated from human after 72 hrs by microdilution method. It is filed as functional.
The subject of test [23] is Aspergillus ochraceus. The test can be described thus: Fungicidal activity against Aspergillus ochraceus ATCC 12066 after 72 hrs by microdilution method. It is filed as functional.
Test [24] has as its system Aspergillus flavus. The test can be described thus: Fungicidal activity against Aspergillus flavus ATCC 9643 after 72 hrs by microdilution method. It is filed as functional.
Test [25] concerns Aspergillus niger. Put plainly: Fungicidal activity against Aspergillus niger ATCC 6275 after 72 hrs by microdilution method. It is filed as functional.
Test [26] deals with Aspergillus fumigatus. The test can be described thus: Fungicidal activity against Aspergillus fumigatus isolated from human after 72 hrs by microdilution method. Format: functional.
Test [27] deals with Trichoderma viride. Put plainly: Antifungal activity against Trichoderma viride IAM 5061 after 72 hrs by microdilution method. Particulars: IAM 5061, 72 h. It is filed as functional.
Test [28] deals with Penicillium ochrochloron. The test can be described thus: Antifungal activity against Penicillium ochrochloron ATCC 9112 after 72 hrs by microdilution method. Format: functional. The following applies: ATCC 9112, 72 h.
Test [29] has as its system Talaromyces funiculosus. Put plainly: Antifungal activity against Penicillium funiculosum ATCC 36839 after 72 hrs by microdilution method. The following applies: ATCC 36839, 72 h. Format: functional.
For test [30], the system named is Candida albicans. The test can be described thus: Antifungal activity against Candida albicans ATCC 10231 isolated from human after 72 hrs by microdilution method. Particulars: ATCC 10231, 72 h. Format: functional.
In test [31] the test system is Trichoderma viride. The test can be described thus: Fungicidal activity against Trichoderma viride IAM 5061 after 72 hrs by microdilution method. Format: functional.
Test [32] relates to Penicillium ochrochloron. The test can be described thus: Fungicidal activity against Penicillium ochrochloron ATCC 9112 after 72 hrs by microdilution method. Format: functional.
Test [33] deals with Talaromyces funiculosus. The test can be described thus: Fungicidal activity against Penicillium funiculosum ATCC 36839 after 72 hrs by microdilution method. It is filed as functional.
The test system of test [34] is Candida albicans. The test can be described thus: Fungicidal activity against Candida albicans ATCC 10231 isolated from human after 72 hrs by microdilution method. It is filed as functional.

As usually defined, the MIC is the least concentration at which growth counts as inhibited. Low readings indicate inhibition by little substance, high ones a need for much substance. `CC1(C)S[C@@H]2[C@H](NC(=O)[C@H](N)c3ccccc3)C(=O)N2[C@H]1C(=O)O` [AMPICILLIN]: the MIC with Staphylococcus aureus [1] was 248 µM (≈ 86.7 µg/mL); against Bacillus cereus [2] it was 248 µM (≈ 86.7 µg/mL); against Micrococcus flavus [3], 248 µM (≈ 86.7 µg/mL); in the test with Listeria monocytogenes [4], 372 µM (≈ 130 µg/mL); against Pseudomonas aeruginosa [9] it was 744 µM (≈ 260 µg/mL); in the test on Salmonella typhimurium [10], 248 µM (≈ 86.7 µg/mL). Also, the MIC in the test on Escherichia coli [11] came out at 372 µM (≈ 130 µg/mL); with Enterococcus faecalis [12], 248 µM (≈ 86.7 µg/mL); in the test with Enterobacter cloacae [13], 248 µM (≈ 86.7 µg/mL). Further, the MBC99.5 against Staphylococcus aureus [5] was 37.2 ×10⁻² umol/ml; against Bacillus cereus [6], 37.2 ×10⁻² umol/ml; against Micrococcus flavus [7], 37.2 ×10⁻² umol/ml; in the test on Listeria monocytogenes [8], 74.4 ×10⁻² umol/ml; in the test with Pseudomonas aeruginosa [14] it was 124 ×10⁻² umol/ml; with Salmonella typhimurium [15], 49.2 ×10⁻² umol/ml. Further, the values for the MBC99.5 in the test with Escherichia coli [16], in the test on Enterococcus faecalis [17] and in the test on Enterobacter cloacae [18] were 49.2 ×10⁻² umol/ml, 37.2 ×10⁻² umol/ml and 37.2 ×10⁻² umol/ml, respectively.
Consider `CNc1nc(C)c(-c2cc(-c3ccccc3)nc(N)n2)s1`, for which the MIC against Staphylococcus aureus [1] came to 84.1 µM (≈ 25 µg/mL); in the test on Bacillus cereus [2], 33.7 µM (≈ 10 µg/mL); with Micrococcus flavus [3], 33.7 µM (≈ 10 µg/mL); with Listeria monocytogenes [4] it was 101 µM (≈ 30 µg/mL); with Pseudomonas aeruginosa [9] it was 33.7 µM (≈ 10 µg/mL); in the test with Salmonella typhimurium [10], 33.7 µM (≈ 10 µg/mL). For the same compound, the MIC in the test on Escherichia coli [11] stood at 33.7 µM (≈ 10 µg/mL); in the test with Enterobacter cloacae [13] it was 67.4 µM (≈ 20 µg/mL); with Aspergillus ochraceus [19] it was 33.7 µM (≈ 10 µg/mL); in the test with Aspergillus flavus [20], 50.5 µM (≈ 15 µg/mL); against Aspergillus niger [21], 50.5 µM (≈ 15 µg/mL); in the test with Aspergillus fumigatus [22] it was 50.5 µM (≈ 15 µg/mL). The MIC with Trichoderma viride [27] was 25.2 µM (≈ 7.49 µg/mL); in the test on Penicillium ochrochloron [28] it was 33.7 µM (≈ 10 µg/mL); with Talaromyces funiculosus [29], 33.7 µM (≈ 10 µg/mL); in the test with Candida albicans [30], 33.7 µM (≈ 10 µg/mL). The MBC99.5 turned out to be 10.1 ×10⁻² umol/ml against Staphylococcus aureus [5]; 6.74 ×10⁻² umol/ml against Bacillus cereus [6]; 8.41 ×10⁻² umol/ml in the test with Micrococcus flavus [7]; 11.81 ×10⁻² umol/ml with Listeria monocytogenes [8]; 6.74 ×10⁻² umol/ml in the test with Pseudomonas aeruginosa [14]; 6.74 ×10⁻² umol/ml against Salmonella typhimurium [15]. Further, the MBC99.5 was 6.74 ×10⁻² umol/ml against Escherichia coli [16] and 8.41 ×10⁻² umol/ml against Enterobacter cloacae [18]. In addition, the MFC99.5 is 6.74 ×10⁻² umol/ml with Aspergillus ochraceus [23]; 6.74 ×10⁻² umol/ml against Aspergillus flavus [24]; 6.74 ×10⁻² umol/ml in the test with Aspergillus niger [25]; 6.74 ×10⁻² umol/ml against Aspergillus fumigatus [26]; 3.37 ×10⁻² umol/ml against Trichoderma viride [31]; 5.05 ×10⁻² umol/ml in the test on Penicillium ochrochloron [32]. For the same compound, the MFC99.5 with Talaromyces funiculosus [33] and in the test on Candida albicans [34] was 6.74 ×10⁻² umol/ml each time.
Consider `CN[C@@H]1[C@H](O[C@H]2[C@H](O[C@H]3[C@H](O)[C@@H](O)[C@H](N=C(N)N)[C@@H](O)[C@@H]3N=C(N)N)O[C@@H](C)[C@]2(O)C=O)O[C@@H](CO)[C@H](O)[C@H]1O` [STREPTOMYCIN], for which the MIC in the test with Staphylococcus aureus [1] stood at 172 µM (≈ 100 µg/mL); against Bacillus cereus [2], 43 µM (≈ 25 µg/mL); in the test on Micrococcus flavus [3], 86 µM (≈ 50 µg/mL); with Listeria monocytogenes [4], 258 µM (≈ 150 µg/mL); against Pseudomonas aeruginosa [9], 172 µM (≈ 100 µg/mL); in the test on Salmonella typhimurium [10], 172 µM (≈ 100 µg/mL). Moreover, the MIC in the test with Escherichia coli [11] is 172 µM (≈ 100 µg/mL); against Enterococcus faecalis [12] it was 43 µM (≈ 25 µg/mL); in the test on Enterobacter cloacae [13], 43 µM (≈ 25 µg/mL). Moreover, the MBC99.5 is 34.4 ×10⁻² umol/ml in the test with Staphylococcus aureus [5]; 8.6 ×10⁻² umol/ml against Bacillus cereus [6]; 17.2 ×10⁻² umol/ml against Micrococcus flavus [7]; 51.6 ×10⁻² umol/ml with Listeria monocytogenes [8]; 34.4 ×10⁻² umol/ml against Pseudomonas aeruginosa [14]; 34.4 ×10⁻² umol/ml with Salmonella typhimurium [15]. In addition, the MBC99.5 in the test on Escherichia coli [16] worked out at 34.4 ×10⁻² umol/ml; with Enterococcus faecalis [17] it was 8.6 ×10⁻² umol/ml; against Enterobacter cloacae [18], 8.6 ×10⁻² umol/ml.
